According to PMC9408872, “Harmicens, Novel Harmine and Ferrocene Hybrids: Design, Synthesis and Biological Activity” (International Journal of Molecular Sciences, 2022):
Like-named read-outs stand apart in the source and are kept apart here.

How the values were obtained:
[1] = system: P. falciparum 3D7 (CQ-sensitive) erythrocytic stages; assay: In vitro drug sensitivity assay (HRP2-ELISA) against erythrocytic stages, Pf3D7; format: cell-based; settings: read-out: IC50 Pf3D7
Protocol: (§1) The in vitro activity of harmicens 20–37 against the erythrocytic stages of CQ-sensitive (Pf3D7) and multidrug-resistant (PfDd2) P. falciparum strains was evaluated following a previously described method (Table 1).
(§2) The antiplasmodial activity of harmicens 20–37 was evaluated against two strains of P. falciparum (3D7—CQ-sensitive, Dd2—multidrug-resistant) as previously described using the histidine-rich protein 2 (HRP2) assay. Briefly, 96-well plates were pre-coated with the tested compounds in a three-fold dilution before ring-stage parasites were added to complete the culture medium at a hematocrit of 1.5% and parasitemia of 0.05%. After three days of incubation at 37 °C, 5% CO2, and 5% oxygen, plates were frozen until HRP2-ELISA analysis. All compounds were evaluated in duplicate in at least two independent experiments. The IC50 was determined using a nonlinear regression analysis of log concentration–response curves using the drc-package v0.9.0 of R v2.6.1 (R Foundation, Vienna, Austria).

[2] = system: MCF-7 (breast adenocarcinoma); assay: cells; settings: for IC50: read-out: IC50 MCF-7; for SI (MCF-7): selectivity index: ratio of IC50 Hek293T to IC50 MCF-7
Protocol: (§3) The parent compound harmine, as well as the reference drug 5-fluorouracil, were used as positive controls.
(§4) The experiments were carried out on five human cell lines purchased from American Type Culture Collection (ATCC): HepG2 (hepatocellular carcinoma; ATCC® HB-8065™), SW620 (colorectal adenocarcinoma; ATCC® CCL-227™), HCT116 (colorectal carcinoma; ATCC® CCL-247™), MCF-7 (breast adenocarcinoma; ATCC® HTB-22™), and Hek293T (embryonic kidney cells; ATCC® CRL-3216™). All cell lines were cultured as monolayers and maintained in Dulbecco’s Modified Eagle Medium (DMEM) (Capricorn Scientific, Ebsdorfergrund, Germany) supplemented with 10% fetal bovine serum (FBS) (Capricorn Scientific, Ebsdorfergrund, Germany), 100 U/mL penicillin, and 100 µg/mL streptomycin (Capricorn Scientific, Ebsdorfergrund, Germany) in a humidified atmosphere with 5% CO2 at 37 °C. Cells were seeded in 96-well plates (Corning, Durham, NC, USA) at 5000–7000 cells per well (depending on the cell-doubling time of a specific cell line) in 0.1 mL media and cultured for 24 h. The next day, the medium was aspirated, and cells were treated for 72 h. Only the compounds that led to more than a 50% reduction in mitochondrial metabolic activity at a concentration of 50 µM were selected for further analysis. The following concentrations of selected compounds were used: 25, 10, 5, and 1 µM. Working dilutions were freshly prepared on the day of the testing. A fresh growth medium was added to untreated control cells, which were defined as 100% viable. DMSO (0.13%) in DMEM was considered a negative control. 5-Fluorouracil (5-FU) and harmine were used as positive controls. At the end of treatment, the medium was removed, and cells were incubated for 1 h with 0.5 mg/mL MTT (Abcam, Cambridge, MA, USA) dissolved in serum-deprived DMEM. The MTT-containing medium was then removed, and 0.1 mL isopropanol was added per well to lyse cells and dissolve formazan. The optical density was measured at 570 nm using a microplate reader (VICTOR3, PerkinElmer, Waltham, MA, USA). Each test point was performed in triplicate. The absorbance was directly proportional to the cell viability. The IC50 values (concentration required to decrease viability by 50%) were calculated by using nonlinear regression on the sigmoidal dose–response plots and are expressed as mean ± SD.

[3] = system: HepG2 (hepatocellular carcinoma); assay: MTT cytotoxicity assay, HepG2; format: cell-based, human; settings: read-out: IC50 HepG2
Protocol: as §3, §4

[4] = system: Hek293T (embryonic kidney cells); assay: MTT cytotoxicity assay, Hek293T; format: cell-based, human; settings: 72 h, read-out: IC50 Hek293T
Protocol: as §3, §4

[5] = system: P. falciparum Dd2 (multidrug-resistant) erythrocytic stages; assay: In vitro drug sensitivity assay (HRP2-ELISA) against erythrocytic stages, PfDd2; format: cell-based; settings: for IC50: read-out: IC50 PfDd2
Protocol: as §1, §2

[6] = system: SW620 (colorectal adenocarcinoma); assay: MTT cytotoxicity assay, SW620; format: cell-based, human; settings: read-out: IC50 SW620
Protocol: as §3, §4

[7] = system: HCT116 (colorectal carcinoma); assay: MTT cytotoxicity assay, HCT116; format: cell-based, human; settings: for IC50: read-out: IC50 HCT116; for SI (HCT116): selectivity index: ratio of IC50 Hek293T to IC50 HCT116
Protocol: as §3, §4

[8] = CQ-sensitive strain, three days incubation, mean ± SD
[9] = noncancer cell line, MTT, mean ± SD
[10] = multidrug-resistant strain, three days incubation, mean ± SD
[11] = Plasmodium falciparum, DD2, 72 h

## 9-((1-(Ferocenylmethyl)-1H-1,2,3-triazol-4-yl)methyl)-7-methoxy-1-methyl-9H-pyrido[3,4-b]indole [Compound 29]
[1]; [8]
  IC50: 2.12 ± 0.81 µM
[2]; 72 h, MTT, mean ± SD
  IC50: > 50 µM
[2]
  SI (MCF-7): >1
[3]; 72 h, MTT, mean ± SD
  IC50: > 50 µM
[4]; [9]
  IC50: > 50 µM
[5]; [10]
  IC50: 2.91 ± 0.05 µM
[6]; 72 h, MTT, mean ± SD
  IC50: > 50 µM
[7]; 72 h, MTT, mean ± SD
  IC50: 14.6 ± 3.7 µM
[7]
  SI (HCT116): >3.4

## CCN(CC)CCCC(C)Nc1ccnc2cc(Cl)ccc12 (stereo not drawn) [CQ, chloroquine, reference compound]
[1]; Plasmodium falciparum, 3D7, 72 h
  IC50: 0.004 ± 0.002 µM
[5]; [11]
  IC50: 0.29 ± 0.1 µM

## O=c1[nH]cc(F)c(=O)[nH]1 [Compound 5-FU, 5-fluorouracil, reference compound]
[2]; Homo sapiens, MCF7, 72 h
  IC50: 23.9 ± 5.7 µM
[2]
  SI (MCF-7): 0.3
[3]; Homo sapiens, HepG2, 72 h, MTT, mean ± SD
  IC50: 5.5 ± 0.6 µM
[4]; Homo sapiens, HEK-293T, noncancer cell line, MTT, mean ± SD
  IC50: 8.1 ± 0.8 µM
[6]; Homo sapiens, SW-620, 72 h, MTT, mean ± SD
  IC50: 9.4 ± 0.3 µM
[7]; Homo sapiens, HCT-116, 72 h, MTT, mean ± SD
  IC50: 5.2 ± 2.8 µM
[7]
  SI (HCT116): 1.6

## [Fe+2].c1cc[cH-]c1.c1ccc2c(c1)[nH]c1c(Cn3cc(-[c-]4cccc4)nn3)nccc12 [Compound 20, 1-((4-Ferrocenyl-1H-1,2,3-triazol-1-yl)methyl)-9H-pyrido[3,4-b]indole]
[1]; [8]
  IC50: 9.23 ± 1.96 µM
[2]; 72 h, MTT, mean ± SD
  IC50: 39.4 ± 7.9 µM
[2]
  SI (MCF-7): >1.3
[3]; 72 h, MTT, mean ± SD
  IC50: 43.9 ± 1.1 µM
[4]; [9]
  IC50: > 50 µM
[5]; [10]
  IC50: 11.2 ± 2.23 µM
[6]; 72 h, MTT, mean ± SD
  IC50: > 50 µM
[7]; 72 h, MTT, mean ± SD
  IC50: 29.4 ± 4.6 µM
[7]
  SI (HCT116): >1.7

## Cc1nc(Cn2cc(-[c-]3cccc3)nn2)cc2c1[nH]c1ccccc12.[Fe+2].c1cc[cH-]c1 [Compound 21, 1-Methyl-3-((4-ferrocenyl-1H-1,2,3-triazol-1-yl)methyl)-9H-pyrido[3,4-b]indole]
[1]; [8]
  IC50: 7.14 ± 0.38 µM
[2]; 72 h, MTT, mean ± SD
  IC50: 17.7 ± 0.6 µM
[2]
  SI (MCF-7): >2.8
[3]; 72 h, MTT, mean ± SD
  IC50: > 50 µM
[4]; [9]
  IC50: > 50 µM
[5]; [10]
  IC50: 6.06 ± 1.36 µM
[6]; 72 h, MTT, mean ± SD
  IC50: 19.7 ± 1.9 µM
[7]; 72 h, MTT, mean ± SD
  IC50: 8.3 ± 1.4 µM
[7]
  SI (HCT116): >6

## Cc1nccc2c1[nH]c1ccc(OCCn3cc(-[c-]4cccc4)nn3)cc12.[Fe+2].c1cc[cH-]c1 [Compound 22, 1-Methyl-6-(2-(4-ferrocenyl-1H-1,2,3-triazol-1-yl)ethoxy)-9H-pyrido[3,4-b]indole]
[1]; [8]
  IC50: 0.35 ± 0.19 µM
[2]; 72 h, MTT, mean ± SD
  IC50: 6.9 ± 0.5 µM
[2]
  SI (MCF-7): 1.1
[3]; 72 h, MTT, mean ± SD
  IC50: 8.4 ± 0.9 µM
[4]; [9]
  IC50: 7.3 ± 2.8 µM
[5]; [10]
  IC50: 0.89 ± 0.01 µM
[6]; 72 h, MTT, mean ± SD
  IC50: 6.5 ± 0.7 µM
[7]; 72 h, MTT, mean ± SD
  IC50: 9 ± 0.7 µM
[7]
  SI (HCT116): 0.8

## Cc1nccc2c1[nH]c1cc(OCCn3cc(-[c-]4cccc4)nn3)ccc12.[Fe+2].c1cc[cH-]c1 [Compound 23, 1-Methyl-7-(2-(4-ferrocenyl-1H-1,2,3-triazol-1-yl)ethoxy)-9H-pyrido[3,4-b]indole]
[1]; [8]
  IC50: 0.15 ± 0.05 µM
[2]; 72 h, MTT, mean ± SD
  IC50: 8 ± 0.2 µM
[2]
  SI (MCF-7): 2.1
[3]; 72 h, MTT, mean ± SD
  IC50: 9.5 ± 0.5 µM
[4]; [9]
  IC50: 17.1 ± 1.8 µM
[5]; [10]
  IC50: 1.02 ± 0.52 µM
[6]; 72 h, MTT, mean ± SD
  IC50: 7.6 ± 0.1 µM
[7]; 72 h, MTT, mean ± SD
  IC50: 38.6 ± 2.8 µM
[7]
  SI (HCT116): 0.4

## COc1ccc2c3ccnc(C)c3n(CCn3cc(-[c-]4cccc4)nn3)c2c1.[Fe+2].c1cc[cH-]c1 [Compound 24, 7-Methoxy-1-methyl-9-(2-(4-ferrocenyl-1H-1,2,3-triazol-1-yl)ethyl)-9H-pyrido[3,4-b]indole]
[1]; [8]
  IC50: 1.35 ± 0.28 µM
[2]; 72 h, MTT, mean ± SD
  IC50: > 50 µM
[2]
  SI (MCF-7): >1
[3]; 72 h, MTT, mean ± SD
  IC50: > 50 µM
[4]; [9]
  IC50: > 50 µM
[5]; [10]
  IC50: 2.31 ± 0.29 µM
[6]; 72 h, MTT, mean ± SD
  IC50: > 50 µM
[7]; 72 h, MTT, mean ± SD
  IC50: > 50 µM
[7]
  SI (HCT116): >1

## [Fe+2].c1cc[cH-]c1.c1ccc2c(c1)[nH]c1c(-c3cn(C[c-]4cccc4)nn3)nccc12 [Compound 25, 1-(1-(Ferrocenylmethyl)-1H-1,2,3-triazol-4-yl)-9H-pyrido[3,4-b]indole]
[1]; [8]
  IC50: 3.62 ± 1.08 µM
[2]; 72 h, MTT, mean ± SD
  IC50: > 50 µM
[2]
  SI (MCF-7): >1
[3]; 72 h, MTT, mean ± SD
  IC50: > 50 µM
[4]; [9]
  IC50: > 50 µM
[5]; [10]
  IC50: 4.37 ± 1.79 µM
[6]; 72 h, MTT, mean ± SD
  IC50: 23.1 ± 6.4 µM
[7]; 72 h, MTT, mean ± SD
  IC50: 7.6 ± 0.5 µM
[7]
  SI (HCT116): >6.6

## Cc1nc(-c2cn(C[c-]3cccc3)nn2)cc2c1[nH]c1ccccc12.[Fe+2].c1cc[cH-]c1 [Compound 26, 3-(1-(Ferrocenylmethyl)-1H-1,2,3-triazol-4-yl)-1-methyl-9H-pyrido[3,4-b]indole]
[1]; [8]
  IC50: 2.63 ± 0.27 µM
[2]
  activity against MCF-7 relative to 5-FU (fold stronger): 3–6.5 fold
  SI (MCF-7): 12.6
[2]; 72 h, MTT, mean ± SD
  IC50: 3.7 ± 0.2 µM
[3]; 72 h, MTT, mean ± SD
  IC50: 12.3 ± 5 µM
[4]; [9]
  IC50: 46.5 ± 1 µM
[5]; [10]
  IC50: 4.02 ± 0.61 µM
[6]; 72 h, MTT, mean ± SD
  IC50: 3.8 ± 0.4 µM
[7]; 72 h, MTT, mean ± SD
  IC50: 35.2 ± 4.7 µM
[7]
  SI (HCT116): 1.3

## Cc1nccc2c1[nH]c1ccc(OCc3cn(C[c-]4cccc4)nn3)cc12.[Fe+2].c1cc[cH-]c1 [Compound 27, 6-((1-(Ferrocenylmethyl)-1H-1,2,3-triazol-4-yl)methoxy)-1-methyl-9H-pyrido[3,4-b]indole]
[1]; [8]
  IC50: 0.31 ± 0.01 µM
[2]
  activity against MCF-7 relative to 5-FU (fold stronger): 3–6.5 fold
  SI (MCF-7): 6.3
[2]; 72 h, MTT, mean ± SD
  IC50: 6.8 ± 0.2 µM
[3]; 72 h, MTT, mean ± SD
  IC50: 17 ± 0.3 µM
[4]; [9]
  IC50: 43 ± 8.6 µM
[5]; [10]
  IC50: 1.09 ± 0.01 µM
[6]; 72 h, MTT, mean ± SD
  IC50: 8.1 ± 0.2 µM
[7]; 72 h, MTT, mean ± SD
  IC50: > 50 µM
[7]
  SI (HCT116): < 0.9

## COc1ccc2c(c1)[nH]c1c(C)nccc12 [HAR, harmine]
[2]; Homo sapiens, MCF7, 72 h
  IC50: 13.5 ± 1.1 µM
[3]; Homo sapiens, HepG2, 72 h
  IC50: 18.7 ± 0.8 µM
[4]; Homo sapiens, HEK-293T
  IC50: 12.6 ± 0.8 µM
[5]; [11]
  IC50: > 27.7 µM
[5]; [10]
  IC50 PfDd2: not active at all
[6]; Homo sapiens, SW-620, 72 h
  IC50: 4.7 ± 0.6 µM
[7]; Homo sapiens, HCT-116, 72 h
  IC50: 4 ± 0.8 µM
